Organism: Rattus norvegicus
Assay: Open TG-GATES - Regimen: Daily Repeat
Assay type: toxicity, organism-based, Sprague-Dawley
Set-up: regimen Daily Repeat, gender Male, age 6 weeks
Conditions: in vivo, po, 50 mg/kg, route gavage, dose level Middle; for APTT / Bas / Eos / Fbg / Hb / Ht / Lym / MCHC / MCV / Mono / Neu / PT / Plat / RBC / Ret / WBC: tissue Blood; for KIDNEY_L / KIDNEY_R / KIDNEY_TOTAL: tissue Kidney; for LIVER: tissue Liver; for ALP / ALT / AST / BUN / CRE / Ca / Cl / DBIL / GLC / IP / K / LDH / Na / PL / RALB / TBIL / TC / TG / TP / gamma-GTP: tissue Plasma

C1CCC(C(CC2CCCCN2)C2CCCCC2)CC1 (centres undefined) [PERHEXILINE]
TERMINAL_BW (72 h, time 3 day): 222.3 g
APTT (72 h, time 3 day): 19.9 s
Bas (72 h, time 3 day): 0%
Eos (72 h, time 3 day): 1%
Fbg (72 h, time 3 day): 339.8 mg/dL
Hb (72 h, time 3 day): 13.5 g/dL
Ht (72 h, time 3 day): 40.4%
Lym (72 h, time 3 day): 72.2%
MCHC (72 h, time 3 day): 33.4%
MCV (72 h, time 3 day): 62.8 fL
Mono (72 h, time 3 day): 2.2%
Neu (72 h, time 3 day): 23.2%
PT (72 h, time 3 day): 16.5 s
Plat (72 h, time 3 day): 125.7 x10_4/uL
RBC (72 h, time 3 day): 643.2 x10_4/ul
Ret (72 h, time 3 day): 6.1%
WBC (72 h, time 3 day): 117.4 x10_2/uL
KIDNEY_L (72 h, time 3 day): 1 g
KIDNEY_R (72 h, time 3 day): 1 g
KIDNEY_TOTAL (72 h, time 3 day): 2.1 g
LIVER (72 h, time 3 day): 10.7 g
ALP (72 h, time 3 day): 1647.4 IU/L
ALT (72 h, time 3 day): 40 IU/L
AST (72 h, time 3 day): 70.2 IU/L
BUN (72 h, time 3 day): 13.6 mg/dL
CRE (72 h, time 3 day): 0.1 mg/dL
Ca (72 h, time 3 day): 10.8 mg/dL
Cl (72 h, time 3 day): 107 meq/L
DBIL (72 h, time 3 day): 0 mg/dL
GLC (72 h, time 3 day): 184.8 mg/dL
IP (72 h, time 3 day): 7.6 mg/dL
K (72 h, time 3 day): 4.1 meq/L
LDH (72 h, time 3 day): 241.2 IU/L
Na (72 h, time 3 day): 141.8 meq/L
PL (72 h, time 3 day): 146.8 mg/dL
RALB (72 h, time 3 day): 3 g/dL
TBIL (72 h, time 3 day): 0.008 mg/dL
TC (72 h, time 3 day): 72.8 mg/dL
TG (72 h, time 3 day): 125 mg/dL
TP (72 h, time 3 day): 5.6 g/dL
gamma-GTP (72 h, time 3 day): 0.8 IU/L
TERMINAL_BW ([…], time 7 day): 248.7 g
TERMINAL_BW ([…], time 14 day): 302.3 g
TERMINAL_BW ([…], time 28 day): 361.8 g
APTT ([…], time 7 day): 22.2 s
Bas ([…], time 7 day): 0%
Eos ([…], time 7 day): 0.6%
Fbg ([…], time 7 day): 314 mg/dL
Hb ([…], time 7 day): 14.1 g/dL
Ht ([…], time 7 day): 41.6%
Lym ([…], time 7 day): 79.8%
MCHC ([…], time 7 day): 33.9%
MCV ([…], time 7 day): 62.6 fL
Mono ([…], time 7 day): 1.6%
Neu ([…], time 7 day): 16.6%
PT ([…], time 7 day): 15.8 s
Plat ([…], time 7 day): 113.7 x10_4/uL
RBC ([…], time 7 day): 666.4 x10_4/ul
Ret ([…], time 7 day): 4.7%
WBC ([…], time 7 day): 85.4 x10_2/uL
APTT ([…], time 14 day): 23.1 s
Bas ([…], time 14 day): 0%
Eos ([…], time 14 day): 0.4%
Fbg ([…], time 14 day): 303 mg/dL
Hb ([…], time 14 day): 14 g/dL
Ht ([…], time 14 day): 40.8%
Lym ([…], time 14 day): 82.2%
MCHC ([…], time 14 day): 34.3%
MCV ([…], time 14 day): 61.7 fL
Mono ([…], time 14 day): 1.4%
Neu ([…], time 14 day): 15%
PT ([…], time 14 day): 15.8 s
Plat ([…], time 14 day): 118.8 x10_4/uL
RBC ([…], time 14 day): 662.8 x10_4/ul
Ret ([…], time 14 day): 5.3%
WBC ([…], time 14 day): 116.6 x10_2/uL
APTT ([…], time 28 day): 22.2 s
Bas ([…], time 28 day): 0%
Eos ([…], time 28 day): 0.6%
Fbg ([…], time 28 day): 314 mg/dL
Hb ([…], time 28 day): 14.1 g/dL
Ht ([…], time 28 day): 41.6%
Lym ([…], time 28 day): 79.8%
MCHC ([…], time 28 day): 33.9%
MCV ([…], time 28 day): 62.6 fL
Mono ([…], time 28 day): 1.6%
Neu ([…], time 28 day): 16.6%
PT ([…], time 28 day): 15.8 s
Plat ([…], time 28 day): 113.7 x10_4/uL
RBC ([…], time 28 day): 666.4 x10_4/ul
Ret ([…], time 28 day): 4.7%
WBC ([…], time 28 day): 85.4 x10_2/uL
KIDNEY_L ([…], time 7 day): 1 g
KIDNEY_R ([…], time 7 day): 1 g
KIDNEY_TOTAL ([…], time 7 day): 2.1 g
KIDNEY_L ([…], time 14 day): 1.2 g
KIDNEY_R ([…], time 14 day): 1.2 g
KIDNEY_TOTAL ([…], time 14 day): 2.3 g
KIDNEY_L ([…], time 28 day): 1.3 g
KIDNEY_R ([…], time 28 day): 1.3 g
KIDNEY_TOTAL ([…], time 28 day): 2.5 g
LIVER ([…], time 7 day): 11.3 g
LIVER ([…], time 14 day): 12.9 g
LIVER ([…], time 28 day): 15 g
ALP ([…], time 7 day): 1686.4 IU/L
ALT ([…], time 7 day): 38.8 IU/L
AST ([…], time 7 day): 67 IU/L
BUN ([…], time 7 day): 18 mg/dL
CRE ([…], time 7 day): 0.2 mg/dL
Ca ([…], time 7 day): 10.5 mg/dL
Cl ([…], time 7 day): 106.2 meq/L
DBIL ([…], time 7 day): 0 mg/dL
GLC ([…], time 7 day): 202 mg/dL
IP ([…], time 7 day): 7.3 mg/dL
K ([…], time 7 day): 4.1 meq/L
LDH ([…], time 7 day): 192 IU/L
Na ([…], time 7 day): 142.8 meq/L
PL ([…], time 7 day): 166.2 mg/dL
RALB ([…], time 7 day): 3.1 g/dL
TBIL ([…], time 7 day): 0.004 mg/dL
TC ([…], time 7 day): 78.4 mg/dL
TG ([…], time 7 day): 181 mg/dL
TP ([…], time 7 day): 5.8 g/dL
gamma-GTP ([…], time 7 day): 1 IU/L
ALP ([…], time 14 day): 1470.4 IU/L
ALT ([…], time 14 day): 42.2 IU/L
AST ([…], time 14 day): 76.6 IU/L
BUN ([…], time 14 day): 18.6 mg/dL
CRE ([…], time 14 day): 0.2 mg/dL
Ca ([…], time 14 day): 10.7 mg/dL
Cl ([…], time 14 day): 107.4 meq/L
DBIL ([…], time 14 day): 0 mg/dL
GLC ([…], time 14 day): 209.8 mg/dL
IP ([…], time 14 day): 6.5 mg/dL
K ([…], time 14 day): 4.2 meq/L
LDH ([…], time 14 day): 231.4 IU/L
Na ([…], time 14 day): 143.2 meq/L
PL ([…], time 14 day): 155.2 mg/dL
RALB ([…], time 14 day): 3 g/dL
TBIL ([…], time 14 day): 0.002 mg/dL
TC ([…], time 14 day): 72.2 mg/dL
TG ([…], time 14 day): 178.6 mg/dL
TP ([…], time 14 day): 5.8 g/dL
gamma-GTP ([…], time 14 day): 1.6 IU/L
ALP ([…], time 28 day): 1171.8 IU/L
ALT ([…], time 28 day): 39.8 IU/L
AST ([…], time 28 day): 67.2 IU/L
BUN ([…], time 28 day): 18.8 mg/dL
CRE ([…], time 28 day): 0.2 mg/dL
Ca ([…], time 28 day): 10.4 mg/dL
Cl ([…], time 28 day): 107 meq/L
DBIL ([…], time 28 day): 0 mg/dL
GLC ([…], time 28 day): 209.2 mg/dL
IP ([…], time 28 day): 6.6 mg/dL
K ([…], time 28 day): 4 meq/L
LDH ([…], time 28 day): 186.8 IU/L
Na ([…], time 28 day): 143 meq/L
PL ([…], time 28 day): 156.4 mg/dL
RALB ([…], time 28 day): 3.1 g/dL
TBIL ([…], time 28 day): 0.004 mg/dL
TC ([…], time 28 day): 71.6 mg/dL
TG ([…], time 28 day): 157.4 mg/dL
TP ([…], time 28 day): 6.1 g/dL
gamma-GTP ([…], time 28 day): 1.4 IU/L

From ChEMBL document CHEMBL3885861, “Open TG-GATES”
